Assays:
[1] = system: chloroquine-resistant Gambian FCR-3 strain of P. falciparum; experiment: Antiplasmodial tritiated hypoxanthine incorporation assay; format: cell-based, Plasmodium falciparum; conditions: for antiplasmodial activity (in words): FCR-3 strain of P. falciparum; for IC50: Plasmodium falciparum, FCR3, chloroquine-resistant FCR-3 strain, 0.5% parasitaemia, 1% haematocrit, triplicate; for Selectivity Index: ratio of cytotoxicity IC50 (MDA-MB-231) to antimalarial IC50 (FCR-3)
Method: All compounds were tested in triplicate against the chloroquine-resistant Gambian FCR-3 strain of P. falciparum. The in vitro erythrocytic stage of the parasite was maintained using the method outlined by Trager and Jensen. The antimalarial activity of the compounds was determined using the tritiated hypoxanthine incorporation assay using a 0.5% parasitaemia and 1% haematocrit. All assays were carried out using untreated parasites and uninfected red blood cells as controls. The concentration that inhibited 50% parasite growth (IC50 value) was determined from the log sigmoid dose response curve using GraphPad Prism. Quinine was used as the reference antiplasmodial agent. The selectivity index for the compounds was determined from the ratio of cytotoxicity IC50 to antimalarial IC50.

[2] = system: MDA-MB-231 breast carcinoma cells; experiment: Cytotoxicity WST-1 assay; format: cell-based; conditions: MDA-MB-231 cells; for IC50: Homo sapiens, WST-1, triplicate
Method: All compounds were tested in triplicate against MDA-MB-231 breast carcinoma cells, which were purchased from the ATCC (Catalogue number HTB-26, Manassas, VA, USA). The cytotoxicity of the compounds was determined using the WST-1 assay method (Roche). The cells were treated with a range of concentrations of the test compounds or vehicle control (DMSO). Cells treated with DMSO were considered to represent 100% viability and the viability of cells at each dose was represented relative to this value. The concentration resulting in a decrease of cell viability to 50% was calculated from the linear portion of the dose response curve.

[3] = system: Plasmodium falciparum (D10); parameters: method as in PMID 19227833; conditions: chloroquine sensitive strain D10 of P. falciparum; ref [5]; cited from earlier work
[4] = listed as sarganaphthoquinoic acid (10)

Compound | antiplasmodial activity (in words) [1] | IC50 [1] [µM] | Selectivity Index [1] | IC50 [2] [µM] | IC50 [3] [µM] | antiplasmodial activity (in words) [1, 4] | cytotoxicity (in words) [2] | cytotoxicity (in words) [2, 4]
CC(C)=CCC/C(C=O)=C\CC/C(C)=C/CC/C(C)=C/CC1=CC(=O)C=C(C)C1=O [10E-sargaquinal (9), 10’E-sargaquinal] | decreased antiplasmodial activity | 104 | 0.7 | 69 | 2 |  |  | 
CC(C)=CCC/C(C=O)=C/CC/C(C)=C/CC/C(C)=C/CC1=CC(=O)C=C(C)C1=O [10Z-sargaquinal (4), 2’E,6’E,10’Z-sargaquinal] | decreased antiplasmodial activity | 72.6 | 2.9 | 211 |  |  |  | 
C=C[C@H]1C[N@@]2CC[C@H]1C[C@H]2[C@H](O)c1ccnc2ccc(OC)cc12 [Quinine, reference compound] |  | 0.17 |  |  |  |  |  | 
CC(C)=CCC/C(=C/CC/C(C)=C/CCC1(C)C=Cc2cc(O)cc(C)c2O1)CO (stereo not drawn) [Sargachromendiol (8), sargachromendiol] |  | 34.2 | 5.5 | 187 |  |  |  | 
CC(C)=CCC/C(=C/CC/C(C)=C/CCC1(C)C=Cc2cc(O)cc(C)c2O1)C(=O)O (stereo not drawn) [Sargachromenol (7), sargachromenol] |  | 115 | 0.5 | 56 |  |  |  | 
CC(C)=CCC/C(=C/CC/C(C)=C/CC/C(C)=C/Cc1cc(O)cc(C)c1O)C(=O)O [Sargahydroquinoic acid (1), sargahydroquinoic acid] |  | 38.6 | 1.8 | 70 | 15.2 |  |  | 
CC(=O)Oc1cc(C)c(OC(C)=O)c(C/C=C(\C)CC/C=C(\C)CC/C=C(/CCC=C(C)C)C(=O)O)c1 [Sargahydroquinoic acid di-acetate (2), Diacetyl Sargahydroquinoic Acid] |  | 84.3 | 3.4 | 286 |  |  |  | 
CC(C)=CCC/C(=C/CC/C(C)=C/CCc1ccc2c(c1)C(=O)C=C(C)C2=O)C(=O)O [Sarganaphthoquinone (10), sarganaphthoquinoic acid] | most promising antiplasmodial activity | 5.4 |  | 2410 |  | good antiplasmodial activity | low cytotoxicity | almost non-toxic
CC(C)=CCC/C(=C/CC/C(C)=C/CC/C(C)=C/CC1=CC(=O)C=C(C)C1=O)C(=O)O [Sargaquinoic acid (3), sargaquinoic acid] | most promising antiplasmodial activity | 10.8 | 60.9 | 658 | 12 |  | low cytotoxicity | 
COC(=O)/C(=C\CC/C(C)=C/CC/C(C)=C/CC1=CC(=O)C=C(C)C1=O)CCC=C(C)C [Sargaquinoic acid methyl ester (5), sargaquinoic acid methyl ester] |  | 8.2 | 8.6 | 70 |  |  |  | 
CC(C)=CCC/C(=C/CC/C(C)=C/CC/C(C)=C/CC1=CC(=O)C=C(C)C1=O)CO [Sargaquinol (6), sargaquinol] | decreased antiplasmodial activity | 93.1 | 1.1 | 99 |  |  |  | 

Reference: publication PMC6630221, “Semi-Synthesis and Evaluation of Sargahydroquinoic Acid Derivatives as Potential Antimalarial Agents” (Medicines, 2019)
